Structures are written as SMILES.

In the first assay the target is SARS-CoV-2 Papain-Like Protease (PLpro) (Severe acute respiratory syndrome coronavirus 2 (2019-nCoV) (SARS-CoV-2), UniProt P0DTD1). The assay is described as follows: biochemical. As to conditions: PLpro enzymatic fluorescence assay; class symbols; read-out: PLpro IC50.
By IC50 is commonly meant the concentration that inhibits the measured activity by half. For the compound `Cc1ccc(OCC2CCN2C)cc1C(=O)NC1(c2c(C)ccc3ccccc23)CC1` (centres unmarked) [Compound 458, 2-Methyl-5-((1-methylazetidin-2-yl)methoxy)-N-(1-(2-methylnaphthalen-1-yl)cyclopropyl)benzamide], the IC50 was less than 100 nM. For the compound `Cc1ccc(N2CC(N)C2)cc1C(=O)NC1(c2cccc3ccccc23)CC1` [Compound 464, 5-(3-Aminoazetidin-1-yl)-2-methyl-N-(1-(naphthalen-1-yl)cyclopropyl)benzamide], the IC50 was less than 100 nM. The same measure, in the same setting: the figure for `Cc1ccc(OCC2CCN2C)cc1C(=O)NC1(c2ccnc3ccccc23)CC1` (centres unmarked) [Compound 473, 2-Methyl-5-((1-methylazetidin-2-yl)methoxy)-N-(1-(quinolin-4-yl)cyclopropyl)benzamide] is less than 100 nM; for `Cc1ccc(OCC2CCN2C)cc1C(=O)NC1(c2cc(OC(C)C)cc3ccccc23)CC1` (centres unmarked) [Compound 476, N-(1-(3-Isopropoxynaphthalen-1-yl)cyclopropyl)-2-methyl-5-((1-methylazetidin-2-yl)methoxy)benzamide] it is less than 100 nM. Same read-out and setting: the figure for `CCOc1cc(C2(NC(=O)c3cc(OCC4CCN4C)ccc3C)CC2)c2ccccc2c1` (centres unmarked) [Compound 478, N-(1-(3-Ethoxynaphthalen-1-yl)cyclopropyl)-2-methyl-5-((1-methylazetidin-2-yl)methoxy)benzamide] is less than 100 nM; for `Cc1ccc(-c2cc(C3(NC(=O)c4cc(OCC(C)N)ccc4C)CC3)c3ccccc3c2)s1` (centres unmarked) [Compound 479, 5-(2-Aminopropoxy)-2-methyl-N-(1-(3-(5-methylthiophen-2-yl)naphthalen-1-yl)cyclopropyl)benzamide] it is less than 100 nM; for `Cc1ccc(OCC(C)N)cc1C(=O)NC1(c2cc(-c3ccc(F)cc3)cc3ccccc23)CC1` (centres unmarked) [Compound 480, 5-(2-Aminopropoxy)-N-(1-(3-(4-fluorophenyl)naphthalen-1-yl)cyclopropyl)-2-methylbenzamide] it is less than 100 nM. The same measure, in the same setting: the figure for `Cc1ccc(N2CCC(N)C2)cc1C(=O)NC1(c2cccc3ccccc23)CC1` (centres unmarked) [Compound 485, 5-(3-Aminopyrrolidin-1-yl)-2-methyl-N-(1-(naphthalen-1-yl)cyclopropyl)benzamide] is less than 100 nM; for `Cc1ccc(OCC2CCN2C)cc1C(=O)NC1(c2cc(O)cc3ncccc23)CC1` (centres unmarked) [Compound 488, N-(1-(7-Hydroxyquinolin-5-yl)cyclopropyl)-2-methyl-5-((1-methylazetidin-2-yl)methoxy)benzamide] it is less than 100 nM; for `Cc1ccc(-c2cc(C3(NC(=O)c4cc(OCC5CCN5C)ccc4C)CC3)c3ccccc3c2)s1` (centres unmarked) [Compound 493, 2-Methyl-5-((1-methylazetidin-2-yl)methoxy)-N-(1-(3-(5-methylthiophen-2-yl)naphthalen-1-yl)cyclopropyl)benzamide] it is less than 100 nM.

The same assay, now with this note: SARS-CoV-2 PLpro enzymatic fluorescence assay; read-out: PLpro IC50.
Consider `C#CC(NC(=O)c1cc(N)ccc1C)c1cccc2ccccc12` (centres unmarked) [Compound 459, 5-Amino-2-methyl-N-(1-(naphthalen-1-yl)prop-2-yn-1-yl)benzamide], for which the concentration for half-maximal inhibition (IC50) was more than 5000 nM. Take `Cc1ccc(OCC2CCN2C)cc1C(=O)NC1(c2cc(Br)cc3ccccc23)CC1` (centres unmarked) [Compound 461, N-(1-(3-Bromonaphthalen-1-yl)cyclopropyl)-2-methyl-5-((1-methylazetidin-2-yl)methoxy)benzamide]: the IC50 was less than 100 nM. The same measure, in the same setting: then `COc1cc(C2(NC(=O)c3cc(OC[C@@H]4CCCN4)ccc3C)CC2)c2cccnc2c1` [Compound 462, (S)-N-(1-(7-Methoxyquinolin-5-yl)cyclopropyl)-2-methyl-5-(pyrrolidin-2-ylmethoxy)benzamide], with less than 100 nM; and `Cc1ccc(N2CCC(N)CC2)cc1C(=O)NC1(c2cccc3ccccc23)CC1` [Compound 463, 5-(4-Aminopiperidin-1-yl)-2-methyl-N-(1-(naphthalen-1-yl)cyclopropyl)benzamide], with 100 to 1000 nM.

For the compound `Cc1ccc(OCC2CCN2C)cc1C(=O)NC1(c2cccc3ccc(C(=O)O)cc23)CC1` (centres unmarked) [Compound 465, 8-(1-(2-Methyl-5-((1-methylazetidin-2-yl)methoxy)benzamido)cyclopropyl)-2-naphthoic acid], the IC50 lay within 1000 to 5000 nM. The same measure, in the same setting: the figure for `COc1cc(C2(NC(=O)c3cc(OCC4CCN4C)ccc3C)CC2)c2ccc(F)cc2n1` (centres unmarked) [Compound 467, N-(1-(7-Fluoro-2-methoxyquinolin-4-yl)cyclopropyl)-2-methyl-5-((1-methylazetidin-2-yl)methoxy)benzamide] is less than 100 nM. `Cc1ccc(OCC2CCN2C)cc1C(=O)NC1(c2cc(-c3cccs3)cc3ccccc23)CC1` (centres unmarked) [Compound 468, 2-Methyl-5-((1-methylazetidin-2-yl)methoxy)-N-(1-(3-(thiophen-2-yl)naphthalen-1-yl)cyclopropyl)benzamide]: the IC50 is less than 100 nM. On to `Cc1ccc(OCC(C)N)cc1C(=O)NC1(c2cc(-c3ccccc3)cc3ccccc23)CC1` (centres unmarked) [Compound 470, 5-(2-Aminopropoxy)-2-methyl-N-(1-(3-phenylnaphthalen-1-yl)cyclopropyl)benzamide], for which the IC50 was less than 100 nM. On to `CCS(=O)(=O)c1cc(C2(NC(=O)c3cc(OCCN(C)C)ccc3C)CC2)c2ccccc2c1` [Compound 471, 5-(2-(Dimethylamino)ethoxy)-N-(1-(3-(ethylsulfonyl)naphthalen-1-yl)cyclopropyl)-2-methylbenzamide], for which the IC50 is 100 to 1000 nM.

For `Cc1ccc(CCCN)cc1C(=O)NC1(c2cccc3ccccc23)CC1` [Compound 472, 5-(3-Aminopropyl)-2-methyl-N-(1-(naphthalen-1-yl)cyclopropyl)benzamide], the IC50 is less than 100 nM.

Turning to `CCCOc1cc(C2(NC(=O)c3cc(OCC4CCN4C)ccc3C)CC2)c2ccccc2c1` (centres unmarked) [Compound 474, 2-Methyl-5-((1-methylazetidin-2-yl)methoxy)-N-(1-(3-propoxynaphthalen-1-yl)cyclopropyl)benzamide], the IC50 is less than 100 nM. Still for that read-out and setting: then `Cc1ccc(OCC2CCN2C)cc1C(=O)NC1(c2cc(-c3ccccc3)cc3ccccc23)CC1` (centres unmarked) [Compound 475, 2-Methyl-5-((1-methylazetidin-2-yl)methoxy)-N-(1-(3-phenylnaphthalen-1-yl)cyclopropyl)benzamide], with less than 100 nM.

As for `Cc1ccc(OCC2CCN2C)cc1C(=O)NC1(c2cccc3ccc(O)cc23)CC1` (centres unmarked) [Compound 477, N-(1-(7-Hydroxynaphthalen-1-yl)cyclopropyl)-2-methyl-5-((1-methylazetidin-2-yl)methoxy)benzamide], the IC50 was less than 100 nM. As to `Cc1cc(C2(NC(=O)c3cc(OCC(C)N)ccc3C)CC2)c2ccccc2c1` (centres unmarked) [Compound 481, 5-(2-Aminopropoxy)-2-methyl-N-(1-(3-methylnaphthalen-1-yl)cyclopropyl)benzamide], the concentration for half-maximal inhibition (IC50) is less than 100 nM. On to `Cc1ccc(OCC2CCN2C)cc1C(=O)NC1(c2cc(NC(=O)OC(C)(C)C)cc3ccccc23)CC1` (centres unmarked) [Compound 482, tert-Butyl(4-(1-(2-methyl-5-((1-methylazetidin-2-yl)methoxy)benzamido)cyclopropyl)naphthalen-2-yl)carbamate], for which the IC50 is less than 100 nM. The same measure, in the same setting: the figure for `Cc1ccc(OCC2CCN2C)cc1C(=O)NC1(c2cccc3ccc(N)cc23)CC1` (centres unmarked) [Compound 483, N-(1-(7-Aminonaphthalen-1-yl)cyclopropyl)-2-methyl-5-((1-methylazetidin-2-yl)methoxy)benzamide] is less than 100 nM; for `Cc1ccc(OCC2CCN2C)cc1C(=O)NC1(c2cc(C#N)cc3ccccc23)CC1` (centres unmarked) [Compound 484, N-(1-(3-Cyanonaphthalen-1-yl)cyclopropyl)-2-methyl-5-((1-methylazetidin-2-yl)methoxy)benzamide] it is less than 100 nM; for `CNCCOc1ccc(C)c(C(=O)NC2(c3cc(-c4cccs4)cc4ccccc34)CC2)c1` [Compound 486, 2-Methyl-5-(2-(methylamino)ethoxy)-N-(1-(3-(thiophen-2-yl)naphthalen-1-yl)cyclopropyl)benzamide] it is less than 100 nM.

As for `Cc1cc(N)c(OCC2CCN2C)cc1C(=O)NC1(c2cccc3ccccc23)CC1` (centres unmarked) [Compound 487, 4-Amino-2-methyl-5-((1-methylazetidin-2-yl)methoxy)-N-(1-(naphthalen-1-yl)cyclopropyl)benzamide], the IC50 is less than 100 nM. On the same count and under the same terms, then `COc1cc(C2(NC(=O)c3cc(OC[C@@H]4C[C@@H](F)CN4C)ccc3C)CC2)c2ccccc2c1` [Compound 489, 5-(((2S,4R)-4-Fluoro-1-methylpyrrolidin-2-yl)methoxy)-N-(1-(3-methoxynaphthalen-1-yl)cyclopropyl)-2-methylbenzamide], with less than 100 nM; and `COc1cc(C2(NC(=O)c3cc(OC[C@@H]4C[C@@H](F)CN4)ccc3C)CC2)c2ccccc2c1` [Compound 490, 5-(((2S,4R)-4-Fluoropyrrolidin-2-yl)methoxy)-N-(1-(3-methoxynaphthalen-1-yl)cyclopropyl)-2-methylbenzamide], with less than 100 nM. Turning to `Cc1ccc(OC2CN(Cc3ccccc3)C(C)(C)C2)cc1C(=O)NC1(c2cccc3ccccc23)CC1` (centres unmarked) [Compound 491, 5-((1-benzyl-5,5-dimethylpyrrolidin-3-yl)oxy)-2-methyl-N-(1-(naphthalen-1-yl)cyclopropyl)benzamide], the IC50 fell in the range of 100 to 1000 nM. Consider `Cc1ccc(OCC2CC(C)(C)N2Cc2ccccc2)cc1C(=O)NC1(c2cccc3ccccc23)CC1` (centres unmarked) [Compound 492, 5-((1-Benzyl-4,4-dimethylazetidin-2-yl)methoxy)-2-methyl-N-(1-(naphthalen-1-yl)cyclopropyl)benzamide], for which the IC50 lay in the range of 100 to 1000 nM. In the case of `Cc1ccc(OCC2CCN2C)cc1C(=O)NC1(c2cc(N(C)C)cc3ccccc23)CC1` (centres unmarked) [Compound 495, N-(1-(3-(Dimethylamino)naphthalen-1-yl)cyclopropyl)-2-methyl-5-((1-methylazetidin-2-yl)methoxy)benzamide], the IC50 was less than 100 nM. With `Cc1ccc(OCC2CCN2C)cc1C(=O)NC1(c2cc(N)cc3ccccc23)CC1` (centres unmarked) [Compound 496, N-(1-(3-Aminonaphthalen-1-yl)cyclopropyl)-2-methyl-5-((1-methylazetidin-2-yl)methoxy)benzamide], the IC50 is less than 100 nM.
